# Measurements reported in patent publication US20160237499A1, “Genetic Markers for Antipsychotic Induced Weight Gain and Methods for Use Thereof” (CENTRE FOR ADDICTION AND MENTAL HEALTH, priority 2013, published 2016).
# How the values were obtained:
# [1] = administered into the parabrachial nucleus in the brainstem; cited from earlier work
# [2] = Percentage weight change in antipsychotic-treated schizophrenia patients; type: in vivo, human; conditions: Sample B (N = 56), SCZ patients of European ancestry receiving clozapine; study duration 6.00 ± 0.00 weeks; mean ± SD
# Procedure: In total, 160 participants with psychotic symptoms were included in this study. Diagnosis for schizophrenia (SCZ) was assessed by the Structured Diagnostic Interviews for DSM-IIIR and/or DSM-IV diagnoses (SCID-I,^31,32), except for sample A where diagnoses were based on an interview assessing both DSM and ICD diagnoses. The inclusion criteria for adult probands were DSM-IIIR/IV diagnosis of SCZ or schizoaffective disorder, with psychotic symptoms. A written informed consent was obtained after the complete study description was given to each participant, and the study has been approved by the Research Ethics Board.
# Sample A (N=93) was collected at the Charité University Medicine, Berlin, Germany. […] Clozapine serum levels were monitored during the course of the treatment to ascertain compliance. Clinical response was assessed after 6 weeks using the Brief Psychiatric Rating Scale (BPRS)^35. […]
# Statistical analyses of demographic variables, which included sex, age at recruitment, and duration of treatment, were performed across samples using Fisher's Exact tests, analysis of variance, or Kruskal-Wallis tests (Table 1). […] We also analyzed the ‘percent weight change’ variable in a meta-analytic approach to take into account heterogeneity across the three patient sample groups using STATA version 8 (e.g.,^48). […] Linkage disequilibrium and r^2 between marker pairs as determined by Haploview 4.1^49. […]
# [3] = patients treated with second-generation antipsychotics; cited from earlier work
Compound,food intake [1],also measured
Cn1ncnc1COc1nn2c(-c3cc(F)ccc3F)nnc2cc1C(C)(C)C [L-838417],increased food intake,–
CN1CCN(C2=Nc3cc(Cl)ccc3Nc3ccccc32)CC1 [clozapine],–,Percentage weight change [2]: 3.88 ± 5.770
Cc1ncc2n1-c1ccc(Cl)cc1C(c1ccccc1F)=NC2 [midazolam],increased food intake,–
Cc1cc2c(s1)Nc1ccccc1N=C2N1CCN(C)CC1 [olanzapine],–,treated patients experiencing significant weight gain [3]: about 30%
